The text below walks through data of ChEMBL document CHEMBL1156251, “Structure--activity relationships of polymyxin antibiotics” (J Med Chem, 2010).

Usually IC50 stands for the concentration that inhibits the measured activity by half.

Assay [1] relates to Escherichia coli. Briefly: Antimicrobial activity against Escherichia coli at 10 ug/mL. The class given is functional.
For another assay, the target named is Lipopolysaccharide (LPS). Kind of assay: Displacement of dansyl-PMB from LPS by isothermal titration calorimetry. To be noted: read-out: IC50. A general note: In ITC the heat of successive injections is recorded.
The subject of assay [2] is Escherichia coli. Kind of assay: Antimicrobial activity against Escherichia coli assessed as relative sensitizing activity. The class given is functional.

Where a SMILES comes first, the peptide text is derived from it. Bridges are numbered along the chain shown (N, C = ends). [ ]: non-standard residue; d: D form. The star is where a group is joined. Octanoyl = CCCCCCCC(=O)*; Dab = NCC[C@H](N)C(=O)O; Abu = CC[C@H](N)C(=O)O

With `CCCCCCCCCC(=O)N[C@H](C(=O)N[C@H](CO)C(=O)N[C@H]1CCNC(=O)[C@H]([C@@H](C)O)NC(=O)[C@H](CCN)NC(=O)[C@H](CCN)NC(=O)[C@H](CC(C)C)NC(=O)[C@@H](Cc2ccccc2)NC(=O)[C@H](CCN)NC1=O)[C@@H](C)O`, in the assay with Escherichia coli [1], the GI was found to be 130 square millimeter.

On to `CCCCCCCC(=O)N[C@H](C(=O)N[C@H](CO)C(=O)N[C@H]1CCNC(=O)[C@H]([C@@H](C)O)NC(=O)[C@H](CCN)NC(=O)[C@H](CCN)NC(=O)[C@H]([C@H](C)O)NC(=O)[C@@H](Cc2ccccc2)NC(=O)[C@H](CCN)NC1=O)[C@@H](C)O`, for which the GI in the assay with Escherichia coli [1] is listed as 172 square millimeter. Still for that read-out and setting: then `CCCCCCC(=O)N[C@H](C(=O)N[C@H](CO)C(=O)N[C@H]1CCNC(=O)[C@H]([C@@H](C)O)NC(=O)[C@H](CCN)NC(=O)[C@H](CCN)NC(=O)[C@H](CC(C)C)NC(=O)[C@@H](Cc2ccccc2)NC(=O)[C@H](CCN)NC1=O)[C@@H](C)O`, with 80 square millimeter; and `CCCCCCC(=O)N[C@H](C(=O)N[C@H](CO)C(=O)N[C@H]1CCNC(=O)[C@H]([C@@H](C)O)NC(=O)[C@H](CCN)NC(=O)[C@H](CCN)NC(=O)[C@H]([C@H](C)O)NC(=O)[C@@H](Cc2ccccc2)NC(=O)[C@H](CCN)NC1=O)[C@@H](C)O`, with 200 square millimeter. In the case of `CCCCCCCC(=O)N[C@H](C(=O)N[C@H](C)C(=O)N[C@H]1CCNC(=O)[C@H]([C@@H](C)O)NC(=O)[C@H](CCN)NC(=O)[C@H](CCN)NC(=O)[C@H]([C@H](C)O)NC(=O)[C@@H](Cc2ccccc2)NC(=O)[C@H](CCN)NC1=O)[C@@H](C)O`, the GI with Escherichia coli [1] was 60 square millimeter. For `CC(C)C[C@@H]1NC(=O)[C@@H](Cc2ccccc2)NC(=O)[C@H](CCCCN)NC(=O)CN(C(=O)[C@H](CCCCN)NC(=O)[C@@H](N)[C@@H](C)O)CCCCNC(=O)[C@@H]([C@H](C)O)NC(=O)[C@H](CCCCN)NC(=O)[C@H](CCCCN)NC1=O`, the IC50 on Lipopolysaccharide (LPS) was determined as 35 µM. For the same compound, in the assay with Escherichia coli [2], the Activity came out at 4%.

Regarding `CC(C)C[C@@H]1NC(=O)[C@@H](Cc2ccccc2)NC(=O)[C@H](CCCCN)NC(=O)[C@@H](NC(=O)[C@H](CCCCN)NC(=O)[C@@H](N)[C@@H](C)O)CCNC(=O)[C@H]([C@@H](C)O)NC(=O)[C@H](CCCCN)NC(=O)[C@H](CCCCN)NC1=O`, the IC50 on Lipopolysaccharide (LPS) was found to be 30 µM. Further, in the assay on Escherichia coli [2], the Activity was 5%. Turning to `CC(C)C[C@@H]1NC(=O)[C@@H](Cc2ccccc2)NC(=O)[C@H](CCCN)NC(=O)CN(C(=O)[C@H](CCCN)NC(=O)[C@@H](N)[C@@H](C)O)CCCNC(=O)[C@@H]([C@H](C)O)NC(=O)[C@H](CCCN)NC(=O)[C@H](CCCN)NC1=O`, the IC50 at Lipopolysaccharide (LPS) was 25 µM. Also, the Activity in the assay on Escherichia coli [2] is reported as 2%.

Regarding `CC(C)C[C@@H]1NC(=O)[C@@H](Cc2ccccc2)NC(=O)[C@H](CCCCN)NC(=O)[C@@H](NC(=O)[C@H](CCCCN)NC(=O)[C@@H](N)[C@@H](C)O)CCNC(=O)[C@H]([C@@H](C)O)NC(=O)[C@H](CCN)NC(=O)[C@H](CCN)NC1=O`, the IC50 at Lipopolysaccharide (LPS) turned out to be 15 µM. Besides, the Activity with Escherichia coli [2] is 4%. As to `CC(C)C[C@@H]1NC(=O)[C@@H](Cc2ccccc2)NC(=O)[C@H](CN)NC(=O)[C@@H](NC(=O)[C@H](CN)NC(=O)[C@@H](N)[C@@H](C)O)CNC(=O)[C@H]([C@@H](C)O)NC(=O)[C@H](CN)NC(=O)[C@H](CN)NC1=O`, the IC50 at Lipopolysaccharide (LPS) worked out at 30 µM. For the same compound, the Activity in the assay with Escherichia coli [2] was determined as 11%. The matching figures for `CC(C)C[C@@H]1NC(=O)[C@@H](Cc2ccccc2)NC(=O)[C@H](CCCCN)NC(=O)[C@@H](NC(=O)[C@H](CCCCN)NC(=O)[C@@H](N)[C@@H](C)O)CCNC(=O)[C@@H]([C@H](C)O)NC(=O)[C@H](CCN)NC(=O)[C@H](CCN)NC1=O`: 14 µM and 9%. As for `CC(C)C[C@@H]1NC(=O)[C@@H](Cc2ccccc2)NC(=O)[C@H](CCN)NC(=O)[C@@H](NC(=O)[C@H](CCN)NC(=O)[C@@H](N)[C@@H](C)O)CCNC(=O)[C@H]([C@@H](C)O)NC(=O)[C@H](CCCCN)NC(=O)[C@H](CCCCN)NC1=O`, the IC50 at Lipopolysaccharide (LPS) is 12 µM. In the assay on Escherichia coli [2], the Activity is recorded as 40%. For `CC(C)C[C@@H]1NC(=O)[C@@H](Cc2ccccc2)NC(=O)[C@H](CC(=N)N)NC(=O)[C@@H](NC(=O)[C@H](CC(=N)N)NC(=O)[C@@H](N)[C@@H](C)O)CCNC(=O)[C@H]([C@@H](C)O)NC(=O)[C@H](CC(=N)N)NC(=O)[C@H](CC(=N)N)NC1=O`, in that order: 3.8 µM and 25%. The compound `CCCCCCCC(=O)N[C@H](C(=O)N[C@@H](CC)C(=O)N[C@H]1CCNC(=O)[C@H]([C@@H](C)O)NC(=O)[C@H](CCN)NC(=O)[C@H](CCN)NC(=O)[C@H](CC(C)C)NC(=O)[C@@H](Cc2ccccc2)NC(=O)[C@H](CCN)NC1=O)[C@@H](C)O` showed a GI with Escherichia coli [1] of 32 square millimeter. With `CCCCCCCC(=O)N[C@H](C(=O)N[C@@H](CCN)C(=O)N[C@H]1CCNC(=O)[C@H]([C@@H](C)O)NC(=O)[C@H](CCN)NC(=O)[C@H](CC)NC(=O)[C@H](CC(C)C)NC(=O)[C@@H](Cc2ccccc2)NC(=O)[C@H](CCN)NC1=O)[C@@H](C)O`, in the assay with Escherichia coli [1], the GI stood at 60 square millimeter. Same read-out and setting: the value for `CCCCCCCC(=O)N[C@H](C(=O)N[C@@H](CCN)C(=O)N[C@H]1CCNC(=O)[C@H]([C@@H](C)O)NC(=O)[C@H](CCN)NC(=O)[C@H](CCN)NC(=O)[C@H](CC(C)C)NC(=O)[C@H](Cc2ccccc2)NC(=O)[C@H](CCN)NC1=O)[C@@H](C)O` was 0 square millimeter.

Take `CC(C)C[C@@H]1NC(=O)[C@@H](Cc2ccccc2)NC(=O)[C@H](CCN)NC(=O)[C@H](CCN)NC(=O)[C@H](NC(=O)[C@@H](N)[C@@H](C)O)CCNC(=O)[C@H]([C@@H](C)O)NC(=O)[C@H](CCN)NC(=O)[C@H](CCN)NC1=O`: the IC50 at Lipopolysaccharide (LPS) came out at 8 µM. For the same compound, the Activity in the assay with Escherichia coli [2] is listed as 7%. Compound `CCCCCCCC(=O)N[C@H](C(=O)N[C@@H](CO)C(=O)N[C@H]1CCNC(=O)[C@H]([C@@H](C)O)NC(=O)[C@H](CCN)NC(=O)[C@H](CCN)NC(=O)[C@H](CC(C)C)NC(=O)[C@@H](Cc2ccccc2)NC(=O)[C@H](CCN)NC1=O)[C@@H](C)O` (Octanoyl-TS[Dab][Dab][dF]L[Dab][Dab]T; lactam 3-C) had a GI in the assay on Escherichia coli [1] of 171 square millimeter. On the same count and under the same terms, then `CCCCCCCC(=O)N[C@H](C(=O)N[C@@H](CC)C(=O)N[C@H]1CCNC(=O)[C@H]([C@@H](C)O)NC(=O)[C@H](CCN)NC(=O)[C@H](CCN)NC(=O)[C@H](CC(C)C)NC(=O)[C@H](CC(C)C)NC(=O)[C@H](CCN)NC1=O)[C@@H](C)O` (Octanoyl-T[Abu][Dab][Dab]LL[Dab][Dab]T; lactam 3-C), with 0 square millimeter; and `CCCCCCCC(=O)N[C@H](C(=O)N[C@@H](CC)C(=O)N[C@H]1CCNC(=O)[C@H](CC(C)C)NC(=O)[C@H](CCN)NC(=O)[C@H](CCN)NC(=O)[C@H](CC(C)C)NC(=O)[C@@H](Cc2ccccc2)NC(=O)[C@H](CCN)NC1=O)[C@@H](C)O` (Octanoyl-T[Abu][Dab][Dab][dF]L[Dab][Dab]L; lactam 3-C), with 50 square millimeter.
